Measurements published in patent US11197908B2, “Peptoids and methods for attenuating inflammatory response” (THE BOARD OF TRUSTEES OF THE UNIVERSITY OF ARKANSAS, priority 2018, dated 2021).
Where a SMILES comes first, the peptide text is derived from it. [ ]: non-standard residue; d: D form. Nphe = O=C(O)CNCc1ccccc1; NPrGly = CCCNCC(=O)O; Nlys = NCCCCNCC(=O)O

Tests used:
RAGE [1] = assay: RAGE upregulation in THP-1 macrophages co-incubated with peptoid and low-dose LPS (confocal imaging); format: cell-based, human; settings: 3 days
Procedure: (§1) THP-1 monocytes were differentiated into macrophages through exposure to phorbol 12-myristate 13-acetate (PMA) for three days prior to experimentation 10. […] Upon differentiation, these cells were then incubated (3 days) with media containing JPT1a (50, 10, or 2 μM) alone or JPT1a (50, 10, or 2 μM) in the presence of low-dose (2 ng/mL) lipopolysaccharide (LPS) as a chronic pro-inflammatory stimulus 11. Treatment with 2 ng/mL LPS alone served as a positive control, while treatment with an equivalent volume of buffer diluted into media served as the vehicle. Cellular supernatant was harvested on day 3 12; these samples were immediately centrifuged at 1200 rpm for 10 min at 25° C. to remove any cells or debris. The top 80% of this volume was subsequently removed and stored at −80° C. for later assessment of cytokines via ELISA. Cells were fixed and stained for RAGE, phalloidin (cytoplasmic marker), and DAPI (nuclear marker) 13. Each channel was imaged with a Zeiss LSM 510 META Confocal Scanning Laser Microscope using a plan-neofluar 40×/1.3 oil DIC immersion objective; three of these multi-channel images were obtained from each slide in each experiment 14. All multi-channel images were converted to TIFF file format via ImageJ64 software for quantitative image analysis using a custom subroutine written in Matlab™ software to obtain the average RAGE expression per volume of cells, and the data generated was assessed for statistical significance using GraphPad Prism 7.0 software 15.
Images acquired via confocal microscopy were analyzed via custom MATLAB™ subroutine to determine the average quantity of RAGE present within a given volume of cells. Results within each experiment are normalized to the positive control (2 ng/mL LPS alone), indicated by the dashed line at 1. Significance relative to positive control is indicated as ** p<0.01. Error bars indicate SEM, n=4.
Images acquired via confocal microscopy were analyzed via custom MATLAB™ subroutine to determine the average quantity of RAGE present within a given volume of cells. Results within each experiment are normalized to the positive control (2 ng/mL LPS alone), indicated by the dashed line at 1.0. Error bars indicate SEM, n=2.

IL-1β = IL-1β in supernatant of THP-1 macrophages co-incubated with peptoid and LPS (ELISA); format: cell-based, human; settings: peptoid 50 μM with 2 ng/mL LPS, 3 days; vs LPS alone
Procedure: as §1, with “The top 80% of this volume was subsequently removed and stored at −80° C. for later assessment of cytokines via ELISA. Cells were fixed and stained for RAGE, phalloidin (cytoplasmic marker), and DAPI (nuclear marker) 13. Each channel was imaged with a Zeiss LSM 510 META Confocal Scanning Laser Microscope using a plan-neofluar 40×/1.3 oil DIC immersion objective; three of these multi-channel images were obtained from each slide in each experiment 14.” left out
(§2) As shown in FIGS. 2B-2D, THP-1 macrophages were treated with JPT1a alone (white) or in the presence of a chronic low-dose (2 ng/mL) of LPS (grey), for 3 days prior to supernatant harvest and storage. Examination of the supernatant via ELISA determined the concentrations of (FIG. 2B) IL-1β, (FIG. 2C) IL-6, and (FIG. 2D) IL-8. […]

IL-6 = IL-6 in supernatant of THP-1 macrophages co-incubated with peptoid and LPS (ELISA); format: cell-based, human; settings: peptoid 50 μM with 2 ng/mL LPS, 3 days; vs LPS alone
Procedure: as §1, with “Each channel was imaged with a Zeiss LSM 510 META Confocal Scanning Laser Microscope using a plan-neofluar 40×/1.3 oil DIC immersion objective; three of these multi-channel images were obtained from each slide in each experiment 14.” left out
as §2
As shown in FIGS. 5B-5D, THP-1 macrophages were treated with JPT1 alone (white) or in the presence of a chronic low-dose (2 ng/mL) of LPS (grey), for 3 days prior to supernatant harvest and storage. Examination of the supernatant via ELISA determined the concentrations of (FIG. 5B) IL-1β, (FIG. 5C) IL-6, and (FIG. 5D) IL-8. […]

RAGE [2] = biological target: RAGE (Homo sapiens, UniProt Q15109); assay: RAGE binding to peptoid-coated 96-well plates, Scatchard plot; settings: plates coated with 500 nM peptoid; JPT1a n=3 average, JPT1 n=1
Sequence of RAGE (Homo sapiens, UniProt Q15109) (Q15109 23-404): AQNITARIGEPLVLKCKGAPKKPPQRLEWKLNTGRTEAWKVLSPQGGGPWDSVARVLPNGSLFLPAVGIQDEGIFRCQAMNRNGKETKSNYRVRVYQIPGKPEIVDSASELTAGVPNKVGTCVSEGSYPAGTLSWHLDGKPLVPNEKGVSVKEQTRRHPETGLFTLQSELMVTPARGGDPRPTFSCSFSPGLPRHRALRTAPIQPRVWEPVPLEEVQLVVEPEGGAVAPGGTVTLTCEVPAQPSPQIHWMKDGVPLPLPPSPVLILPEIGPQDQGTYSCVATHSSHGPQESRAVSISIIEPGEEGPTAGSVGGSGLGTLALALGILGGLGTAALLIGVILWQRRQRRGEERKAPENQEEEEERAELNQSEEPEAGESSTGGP
Procedure: As shown in FIGS. 7A-7D, 96-well plates coated with 500 nM JPT1a were treated with concentrations of RAGE (FIG. 7A) or E-cadherin (FIG. 7B) ranging from 1 to 500 nM. Values are reported as the average concentration of bound protein determined from all experiments. Error bars indicate SEM, n=2-5. […] In FIG. 7D, 96-well plates coated with 500 nM JPT1 were treated with concentrations of RAGE ranging from 1 to 350 nM.

Compound: CCCN(CC(=O)N(CCC)CC(=O)N(CC(=O)N(CC(=O)N(CCC)CC(=O)N(CC(=O)N(CC(N)=O)Cc1ccccc1)Cc1ccccc1)Cc1ccccc1)Cc1ccccc1)C(=O)CNCCCCN [JPT1] (H-[Nlys][NPrGly][NPrGly][Nphe][Nphe][NPrGly][Nphe][Nphe]-NH2)
- upregulation in RAGE expression in the presence of LPS (RAGE [1]; peptoid 50, 10 or 2 μM with 2 ng/mL LPS, normalized to LPS alone): reduced in a dose-dependent manner
- expression of RAGE, peptoid alone (RAGE [1]; peptoid alone (no LPS), relative to the control): does not provoke response or upregulation
- LPS-induced production of IL-1β (IL-1β): significantly attenuates
- LPS-induced production of IL-6 (IL-6): significantly attenuates
- Kd (RAGE [2]): 78.8 nM
